#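 GI50: concentration for 50% inhibition of growth. Definition used: TGI = concentration required for complete inhibition of growth.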
# Key:
# Experiment in all cases: NCI tumour cell line growth inhibition, 384-well format
# 786-0 renal = tested on: 786-0 renal
# A498 renal = tested on: A498 renal
# A549 NSCLC = tested on: A549 NSCLC
# ACHN renal = tested on: ACHN renal
# BT-549 breast = tested on: BT-549 breast
# CAKI-1 renal = tested on: CAKI-1 renal
# COLO 205 colon = tested on: COLO 205 colon
# DU-145 prostate = tested on: DU-145 prostate
# EKVX NSCLC = tested on: EKVX NSCLC
# HCT-116 colon = tested on: HCT-116 colon
# HCT-15 colon = tested on: HCT-15 colon
# HL-60(TB) leukemia = tested on: HL-60(TB) leukemia
# HOP-62 NSCLC = tested on: HOP-62 NSCLC
# HOP-92 NSCLC = tested on: HOP-92 NSCLC
# HS 578T breast = tested on: HS 578T breast
# HT29 colon = tested on: HT29 colon
# IGROV1 ovarian = tested on: IGROV1 ovarian
# K-562 leukemia = tested on: K-562 leukemia
# KM12 colon = tested on: KM12 colon
# M14 melanoma = tested on: M14 melanoma
# MALME-3M melanoma = tested on: MALME-3M melanoma
# MCF7 breast = tested on: MCF7 breast
# MDA-MB-231 breast = tested on: MDA-MB-231 breast
# MDA-MB-435 melanoma = tested on: MDA-MB-435 melanoma
# MDA-MB-468 breast = tested on: MDA-MB-468 breast
# MOLT-4 leukemia = tested on: MOLT-4 leukemia
# NCI-H226 lung = tested on: NCI-H226 lung
# NCI-H23 lung = tested on: NCI-H23 lung
smiles,measurement,setting,value
Cn1cc(-c2ccc(CNc3cc(-c4cnc5cc(OCCCN6CCCC6)ccn45)ncn3)cc2)cn1,GI50,786-0 renal,1.54 µM
same,TGI,786-0 renal,2.89 µM
same,GI50,A498 renal,1.78 µM
same,TGI,A498 renal,3.18 µM
same,GI50,A549 NSCLC,1.82 µM
same,TGI,A549 NSCLC,3.23 µM
same,GI50,ACHN renal,1.81 µM
same,TGI,ACHN renal,3.21 µM
same,GI50,BT-549 breast,1.62 µM
same,TGI,BT-549 breast,2.98 µM
same,GI50,CAKI-1 renal,1.86 µM
same,TGI,CAKI-1 renal,3.26 µM
same,GI50,COLO 205 colon,2.01 µM
same,TGI,COLO 205 colon,3.45 µM
same,GI50,DU-145 prostate,1.82 µM
same,TGI,DU-145 prostate,3.34 µM
same,GI50,EKVX NSCLC,1.67 µM
same,TGI,EKVX NSCLC,3.06 µM
same,GI50,HCT-116 colon,1.63 µM
same,TGI,HCT-116 colon,3.02 µM
same,GI50,HCT-15 colon,1.77 µM
same,TGI,HCT-15 colon,3.2 µM
same,GI50,HL-60(TB) leukemia,1.56 µM
same,TGI,HL-60(TB) leukemia,2.9 µM
same,GI50,HOP-62 NSCLC,1.63 µM
same,TGI,HOP-62 NSCLC,3 µM
same,GI50,HOP-92 NSCLC,1.84 µM
same,TGI,HOP-92 NSCLC,3.25 µM
same,GI50,HS 578T breast,1.58 µM
same,TGI,HS 578T breast,2.93 µM
same,GI50,HT29 colon,0.969 µM
same,TGI,HT29 colon,2.15 µM
same,GI50,IGROV1 ovarian,1.88 µM
same,TGI,IGROV1 ovarian,3.34 µM
same,GI50,K-562 leukemia,1.5 µM
same,TGI,K-562 leukemia,2.85 µM
same,GI50,KM12 colon,1.85 µM
same,TGI,KM12 colon,3.29 µM
same,GI50,M14 melanoma,1.84 µM
same,TGI,M14 melanoma,3.24 µM
same,GI50,MALME-3M melanoma,1.83 µM
same,TGI,MALME-3M melanoma,3.23 µM
same,GI50,MCF7 breast,1.36 µM
same,TGI,MCF7 breast,2.67 µM
same,GI50,MDA-MB-231 breast,1.61 µM
same,TGI,MDA-MB-231 breast,2.97 µM
same,GI50,MDA-MB-435 melanoma,1.77 µM
same,TGI,MDA-MB-435 melanoma,3.17 µM
same,GI50,MDA-MB-468 breast,1.8 µM
same,TGI,MDA-MB-468 breast,3.21 µM
same,GI50,MOLT-4 leukemia,1.5 µM
same,TGI,MOLT-4 leukemia,2.83 µM
same,GI50,NCI-H226 lung,1.69 µM
same,TGI,NCI-H226 lung,3.06 µM
same,GI50,NCI-H23 lung,11.3 µM
